In US8217071B2, “Use of inhibitors of the degradation of p27, in particular Argyrin and derivatives thereof, for the treatment of proliferative diseases” (Helmholtz Zentrum für Infektionsforschung GmbH, priority 2007, dated 2012):
Converted amounts (≈) assume the structure as drawn. Numbered stars: 1 amine (or outer) side, 2 acyl side, 3 side chain; on linkers, the order of the positions; unused ones are H or OH. Square brackets hold non-standard residues; d marks the D form. Peptide text beside a SMILES is read from it. * marks the point of attachment. X1 = COc1cccc2[nH]c(C)c(C[C@H](N[*:1])C(=O)[*:2])c12; dAla(ψthiazole) = C[C@@H](N[*:1])c1nc(C(=O)[*:2])cs1; Trp(4-OMe) = COc1cccc2[nH]cc(C[CH](N)C(=O)O)c12; X2 = O=C(c1csc([C@@H](CO)N[*:1])n1)[*:2]; GlyΨ(Thz) = O=C(c1csc(CN[*:1])n1)[*:2]; dAbu = CC[C@@H](N)C(=O)O; Cbz = O=C(OCc1ccccc1)*; Dha = C=C(N)C(=O)O; Sar = CNCC(=O)O

Assays:
[1] = system: p27-GFP (clone H15GFP-p27, HeLa-cell line; cervix-carcinoma); test: GFP-fluorescence per FACS in clone H15GFP-p27; assay type: cell-based, human; settings: GFP-fluorescence per FACS after 24 h incubation, 500 ng/ml
From the text: Human p27cDNA (in plasmid vector CS2+) was digested with EcoR1 and BamH1, and the resulting fragment was ligated after gel purification into the vector pEGFP-N1 (Clontech) that was cut with the same restriction enzymes. Thus, a […] fusion with the GFP as contained in the pEGFP-vector was generated. The plasmid was then transfected into Hela cells, and, following selection of the cells with kanamycin, cellular clones were isolated which had the plasmid integrated stably into their chromosome. The expression of the p27EGFP proteins was confirmed using Western blots and immune precipitations for both p27 and GFP.
(§1) The following table summarizes the effects of argyrin-derivatives A to H on two cancer cell lines, H15 (cervix carcinoma) and SW-480 (colon cancer). In order to test the efficacy, a p27-GFP-clone was used.

H15 (cervix carcinoma) = test: MIC (visual), serial dilution, H15; assay type: cell-based, human; settings: minimal concentration of a serial dilution exhibiting a visual effect
From the text: as §1

SW-480 (colon cancer) = test: MIC (visual), serial dilution, SW-480; assay type: cell-based, human; settings: minimal concentration of a serial dilution exhibiting a visual effect
From the text: as §1

[2] = system: SW-480 (colon cancer cell line); test: MTT-test proliferation of SW-480; assay type: cell-based, human; settings: for IC-50 SW-480: half-maximal inhibition of proliferation
Procedure: (§2) MTT assays were done as previously described (Sasse, F. et al. Argyrins, immunosuppressive cyclic peptides from myxobacteria. I. Production, isolation, physico-chemical and biological properties. J Antibiot (Tokyo) 55, 543-51 (2002)). TUNEL staining of tissue sections was performed on 10 micrometer sections which were deparafinised and treated as recommended by the manufacturer. (In Situ Cell Death Detection Kit, Fluorescein; ROCHE, Cat #11 684 795 910). Flow cytometric analysis of cultured cells was done using a Becton Dickinson fluorescence cytometer as previously described (Malek, N. P. et al. A mouse knock-in model exposes sequential proteolytic pathways that regulate p27^Kip1 in G1 and S phase. Nature 413, 323-7 (2001)). Analysis of the distribution of cells in the cell cycle and the sub-G1 fraction was done using Cell Quest software. A histone-associated-DNA-fragments ELISA was used to determine the number of apoptotic cells according to manufacturers instructions (Roche #11 774425001).

[3] = system: mouse embryonic fibroblasts from p27^kip1 wildtype mice; test: Apoptosis (sub-G1 fraction) by flow cytometry in p27 wildtype MEF; assay type: cell-based; settings: sub G1 fraction
From the text: (§3) Next the inventors tested whether the stabilization of p27 was indeed required for the apoptosis inducing function of Argyrin A or was merely a consequence of proteasome inhibition. For this the inventors treated immortalized mouse embryonic fibroblasts from p27^kip1 wildtype or knockout mice with Argyrin A or the proteasome inhibitor bortezomib and assayed cell cycle distribution and apoptosis by flow cytometry. […] These differences in sensitivity in response to Argyrin A treatment were not due to differences in the accumulation of other proteasomal substrates in p27 wildtype and knockout cells as p53 and p21 levels increased in both cell lines in response to Argyrin A (FIG. 6B). To extend this observation to human cancer cells the inventors reduced the levels of p27^kip1 in HeLa cells using p27^kip1 specific siRNA.
(§4) The results shown are the average numbers for six independent experiments. b+d) Wildtype (b) and p27 knockout (d) MEF were treated with Argyrin A or transfected with siRNAs specific for the β1, β2 or β5 subunit of the proteasome for 24 hours. The graphs show the remaining catalytic activity of the different proteasome subunits after Argyrin A or siRNA treatment compared to an untreated control (n=3). The western blots show the expression of the β1, β2 or β5 subunit of the proteasome in proliferating cells and after treatment with siRNAs for a representative experiment. c+e) Flow cytometric measurements of the number of apoptotic cells (sub-G1 fraction) after Argyrin A or siRNA treatment in wildtype (c) or p27 knockout (E) MEF. f) HeLa cells were treated with Argyrin A or siRNA against p27 or Argyrin A and siRNA against p27 for either 24 or 48 hours.
as §2

[4] = system: mouse embryonic fibroblasts from p27^kip1 knockout mice; test: Apoptosis (sub-G1 fraction) by flow cytometry in p27 knockout MEF; assay type: cell-based; settings: sub G1 fraction
From the text: as §3, §4, §2

In the case of `C=C1NC(=O)[C@@H](CC)NC(=O)CNC(=O)[C@H](Cc2c[nH]c3cccc(OC)c23)NC(=O)[C@H](Cc2c[nH]c3ccccc23)NC(=O)c2csc(n2)[C@@H](C)NC(=O)CN(C)C1=O` [Argyrin B, argyrin B] (cyclo([Dha][Sar][dAla(ψthiazole)]W[Trp(4-OMe)]G[dAbu])), the “Mean of FSC-H (Log) H15 p27-GFP-clone” value [1] is reported as 7.60, the “MIC (visual) H15” value (H15 (cervix carcinoma)) is reported as 12 µg/mL (≈ 14.3 µM) and the “MIC (visual) SW-480” value (SW-480 (colon cancer)) is reported as 12 µg/mL (≈ 14.3 µM). The IC50 ([2]; Homo sapiens, SW480, half-maximal inhibition of proliferation, read-out: IC-50 SW-480) was ~0.05 µg/mL (≈ 0.0596 µM).

For `C=C1NC(=O)[C@@H](C)NC(=O)CNC(=O)[C@H](Cc2c(C)[nH]c3cccc(OC)c23)NC(=O)[C@H](Cc2c[nH]c3ccccc23)NC(=O)c2csc(n2)[C@@H](C)NC(=O)CN(C)C1=O` [Argyrin C] (cyclo(W[X1]G[dA][Dha][Sar][dAla(ψthiazole)])), the “Mean of FSC-H (Log) H15 p27-GFP-clone” value [1] was 7.36, the “MIC (visual) H15” value (H15 (cervix carcinoma)) was 37 µg/mL (≈ 44.1 µM) and the “MIC (visual) SW-480” value (SW-480 (colon cancer)) was 37 µg/mL (≈ 44.1 µM). The “IC-50 SW-480” value [2] was “Ca. 0.05 μg/ml”.

For `C=C1NC(=O)[C@@H](CC)NC(=O)CNC(=O)[C@H](Cc2c(C)[nH]c3cccc(OC)c23)NC(=O)[C@H](Cc2c[nH]c3ccccc23)NC(=O)c2csc(n2)[C@@H](C)NC(=O)CN(C)C1=O` [Argyrin D] (cyclo(W[X1]G[dAbu][Dha][Sar][dAla(ψthiazole)])), the “Mean of FSC-H (Log) H15 p27-GFP-clone” value [1] was 7.69, the “MIC (visual) H15” value (H15 (cervix carcinoma)) was 12 µg/mL (≈ 14.1 µM) and the “MIC (visual) SW-480” value (SW-480 (colon cancer)) was 37 µg/mL (≈ 43.4 µM). For the same compound, the “IC-50 SW-480” value [2] was “Ca. 0.05 μg/ml”.

For `C=C1NC(=O)[C@@H](C)NC(=O)CNC(=O)[C@H](Cc2c[nH]c3cccc(OC)c23)NC(=O)[C@H](Cc2c[nH]c3ccccc23)NC(=O)c2csc(n2)[C@@H](CO)NC(=O)CN(C)C1=O` [Argyrin F, argyrin F] (cyclo([Dha][Sar][X2]W[Trp(4-OMe)]G[dA])), the “Mean of FSC-H (Log) H15 p27-GFP-clone” value [1] was 11.24, the “MIC (visual) H15” value (H15 (cervix carcinoma)) was 0.5 µg/mL (≈ 0.595 µM) and the “MIC (visual) SW-480” value (SW-480 (colon cancer)) was 0.2 µg/mL (≈ 0.238 µM). For the same compound, the “IC-50 SW-480” value [2] was 0.05 µg/mL.

`C=C1NC(=O)C(C)NC(=O)CNC(=O)C(Cc2c[nH]c3cccc(OC)c23)NC(=O)C(Cc2c[nH]c3ccccc23)NC(=O)c2csc(n2)CNC(=O)CN(C)C1=O` (stereo not drawn) [Argyrin H] (cyclo([Dha][Sar][GlyΨ(Thz)]W[Trp(4-OMe)]GA); configuration not given here) was tested, and the “MIC (visual) H15” value (H15 (cervix carcinoma)) was 37 µg/mL (≈ 45.6 µM), the “MIC (visual) SW-480” value (SW-480 (colon cancer)) was 37 µg/mL (≈ 45.6 µM) and the “IC-50 SW-480” value [2] was “Ca. 0.5 μg/ml”.

For `CC(C)C[C@@H](C=O)NC(=O)[C@H](CC(C)C)NC(=O)[C@H](CC(C)C)NC(=O)OCc1ccccc1` [MG132] (Cbz-Leu-Leu-Leu-aldehyde), the “apoptosis in p27 wildtype MEF” value [3] was “same response” and the “apoptosis in p27 knockout MEF” value [4] was “same response”.
